Experimental data: US12516038B2, “Inhibitors of antigen presentation by HLA-DR” (Janssen Pharmaceutica NV, priority 2020, dated 2026)

Key:
HLA-DRB1*0401 = HLA-DRB1*0401 (Homo sapiens (Human), UniProt P01903+P01911, A100K/A169T/DEL228-266/F76Y/I96L/K127E/L162R/M171V/N62H/P40V/Q125Y/R42H/S133A/S149N/S66Y/V115G/V209L/W38E); test: HLA-DR4 HTRF assay; type: binding; conditions: inhibition of loading of Alexa Fluor 647-labeled Cit-CII peptide onto HLA-DR4 (CLIP cleaved)
In short: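 HLA-DRB1*04:01 construct (α/β fused to human Fc, CLIP pre-cleaved by HRV3C overnight at 4° C) at 3 nM was preincubated 45 min with compound and 1 nM anti-Fc-Tb donor, then 40 nM Alexa647-Cit-CII1236-1249 peptide added. After 90 min at 37° C, the 665/620 nm HTRF ratio gave % inhibition; IC50 by nonlinear regression.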

[1] = test system: HLA-DR4 restricted mouse T cell hybridoma line (DR4.CII.36.8) with HLA-DRB1*04:01-expressing Boleth cells; test: HLA-DR4-restricted peptide-specific T cell-based assay (hybridoma assay); conditions: Mus musculus, T-cell, 6 h, inhibition of IL-2 production, CII259-273 peptide presented by Boleth cells
In short: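 Boleth cells (HLA-DRB1*04:01 B cell line) pre-incubated with compound 1 h at 37° C. in DMEM/1% FCS, then DR4.CII.36.8 mouse T cell hybridoma (CII259-273-specific) added for 6 h with CII259-273 peptide. Supernatant mouse IL-2 by AlphaLISA; IC50 by 4-PL fit of 8-point duplicate titrations.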

[2] = test system: human peripheral blood CD4+ helper T cells; test: Pan-CD4+ T cell activation (off-target assay); type: cell-based; conditions: Homo sapiens, T-cell, 24 h, anti-CD3/anti-CD28 stimulation, IL-2 production by ELISA
In short: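 Human peripheral blood CD4+ T cells, with no APCs present, were stimulated with plate-bound anti-CD3 (1 μg/mL coating) plus soluble anti-CD28 (1 μg/mL) in the presence of compound or vehicle for 24 h. IL-2 in the supernatant was quantified by ELISA.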

SMILES | IC50 (HLA-DRB1*0401) [nM] | IC50 [1] [nM] | IC50 [2] [nM]
Cc1c(O[C@H](c2ccc(C(N)=O)cc2)c2ccc(C(=O)O)cc2)ccc2c1OCCC2=O (single isomer, unassigned) [Example 71a, (*R)-4-((4-carbamoylphenyl)((8-methyl-4-oxochroman-7-yl)oxy)methyl)benzoic acid] | 1600 | 1500 | > 15000
Cc1c(O[C@@H](c2ccc(C(N)=O)cc2)c2ccc(C(=O)O)cc2)ccc2c1OCCC2=O (single isomer, unassigned) [Example 71b, (*S)-4-((4-carbamoylphenyl)((8-methyl-4-oxochroman-7-yl)oxy)methyl)benzoic acid] | 930 | 200 | > 15000
CN(C)C(=O)c1ccc([C@@H](Oc2ccc3c(c2)OCCC3=O)c2ccncc2)cc1 (single isomer, unassigned) [Example 72a, (*R)—N,N-dimethyl-4-(((4-oxochroman-7-yl)oxy)(pyridin-4-yl)methyl)benzamide] | 840 | 6300 | 9900
CN(C)C(=O)c1ccc([C@H](Oc2ccc3c(c2)OCCC3=O)c2ccncc2)cc1 (single isomer, unassigned) [Example 72b, (*S)—N,N-dimethyl-4-(((4-oxochroman-7-yl)oxy)(pyridin-4-yl)methyl)benzamide] | 690 | 11000 | > 15000
CCc1c(O[C@@H](c2ccncc2)c2ccc(C(N)=O)cc2)ccc2c1OCCC2=O (single isomer, unassigned) [Example 73a, (*R)-4-(((8-ethyl-4-oxochroman-7-yl)oxy)(pyridin-4-yl)methyl)benzamide] | 540 | 110 | 8000
CCc1c(O[C@H](c2ccncc2)c2ccc(C(N)=O)cc2)ccc2c1OCCC2=O (single isomer, unassigned) [Example 73b, (*S)-4-(((8-ethyl-4-oxochroman-7-yl)oxy)(pyridin-4-yl)methyl)benzamide] | 600 | 710 | 15000
CCc1cc2c(cc1O[C@@H](c1ccncc1)c1ccc(C(N)=O)cc1)OCCC2=O (single isomer, unassigned) [Example 74a, (*R)-4-(((6-ethyl-4-oxochroman-7-yl)oxy)(pyridin-4-yl)methyl)benzamide] | 550 | 120 | 2200
CCc1cc2c(cc1O[C@H](c1ccncc1)c1ccc(C(N)=O)cc1)OCCC2=O (single isomer, unassigned) [Example 74b, (*S)-4-(((6-ethyl-4-oxochroman-7-yl)oxy)(pyridin-4-yl)methyl)benzamide] | 920 | 1900 | 15000
CC(C)c1c(O[C@@H](c2ccncc2)c2ccc(C(N)=O)cc2)ccc2c1OCCC2=O (single isomer, unassigned) [Example 75a, (*R)-4-(((8-isopropyl-4-oxochroman-7-yl)oxy)(pyridin-4-yl)methyl)benzamide] | 600 | 62 | 4700
CC(C)c1c(O[C@H](c2ccncc2)c2ccc(C(N)=O)cc2)ccc2c1OCCC2=O (single isomer, unassigned) [Example 75b, (*S)-4-(((8-isopropyl-4-oxochroman-7-yl)oxy)(pyridin-4-yl)methyl)benzamide] | 630 | 180 | 9300
CC(C)c1cc2c(cc1O[C@@H](c1ccncc1)c1ccc(C(N)=O)cc1)OCCC2=O (single isomer, unassigned) [Example 76a, (*R)-4-(((6-isopropyl-4-oxochroman-7-yl)oxy)(pyridin-4-yl)methyl)benzamide] | 650 | 320 | 2200
CC(C)c1cc2c(cc1O[C@H](c1ccncc1)c1ccc(C(N)=O)cc1)OCCC2=O (single isomer, unassigned) [Example 76b, (*S)-4-(((6-isopropyl-4-oxochroman-7-yl)oxy)(pyridin-4-yl)methyl)benzamide] | 1000 | 3100 | 15000
COc1cc(O[C@@H](c2ccncc2)c2ccc(C(N)=O)cc2)cc2c1C(=O)CCO2 (single isomer, unassigned) [Example 77a, (*R)-4-(((5-methoxy-4-oxochroman-7-yl)oxy)(pyridin-4-yl)methyl)benzamide] | 1700 | 9100 | > 15000
COc1cc(O[C@H](c2ccncc2)c2ccc(C(N)=O)cc2)cc2c1C(=O)CCO2 (single isomer, unassigned) [Example 77b, (*S)-4-(((5-methoxy-4-oxochroman-7-yl)oxy)(pyridin-4-yl)methyl)benzamide] | 1500 | 5500 | 9900
N#Cc1c(O[C@@H](c2ccncc2)c2ccc(C(N)=O)cc2)ccc2c1OCCC2=O (single isomer, unassigned) [Example 78a, (*R)-4-(((8-cyano-4-oxochroman-7-yl)oxy)(pyridin-4-yl)methyl)benzamide] | 470 | 2300 | 9900
N#Cc1c(O[C@H](c2ccncc2)c2ccc(C(N)=O)cc2)ccc2c1OCCC2=O (single isomer, unassigned) [Example 78b, (*S)-4-(((8-cyano-4-oxochroman-7-yl)oxy)(pyridin-4-yl)methyl)benzamide] | 450 | 470 | 15000
NC(=O)c1ccc([C@@H](Oc2ccc3c(c2-c2ccc(-c4ccccc4)cc2)OCCC3=O)c2ccncc2)cc1 (single isomer, unassigned) [Example 79a, (*R)-4-(((8-([1,1′-biphenyl]-4-yl)-4-oxochroman-7-yl)oxy)(pyridin-4-yl)methyl)benzamide] | 28000 | 470 | 3100
NC(=O)c1ccc([C@H](Oc2ccc3c(c2-c2ccc(-c4ccccc4)cc2)OCCC3=O)c2ccncc2)cc1 (single isomer, unassigned) [Example 79b, (*S)-4-(((8-([1,1′-biphenyl]-4-yl)-4-oxochroman-7-yl)oxy)(pyridin-4-yl)methyl)benzamide] | 49000 | 970 | > 15000
CCCc1c(O[C@@H](c2ccncc2)c2ccc(C(N)=O)cc2)ccc2c1OCCC2=O (single isomer, unassigned) [Example 80a, (*R)-4-(((4-Oxo-8-propylchroman-7-yl)oxy)(pyridin-4-yl)methyl)benzamide] | 660 | 32 | 5900
Cc1c(O[C@H](c2ccncc2)c2cccc(CNC(N)=O)c2)ccc2c1OCCC2=O (single isomer, unassigned) [Example 81b, (*S)-1-(3-(((8-methyl-4-oxochroman-7-yl)oxy)(pyridin-4-yl)methyl)benzyl)urea] | 610 | 1300 | > 15000
CCOc1cc(C(N)=O)ccc1[C@H](Oc1ccc2c(c1C)OCCC2=O)c1ccncc1 (single isomer, unassigned) [Example 83a, (*R)-3-ethoxy-4-(((8-methyl-4-oxochroman-7-yl)oxy)(pyridin-4-yl)methyl)benzamide] | 950 | 2700 | 990
Cc1c(O[C@H](c2ccncc2)c2ccc(C(N)=O)cc2OC(C)C)ccc2c1OCCC2=O (single isomer, unassigned) [Example 84a, (*R)-3-isopropoxy-4-(((8-methyl-4-oxochroman-7-yl)oxy)(pyridin-4-yl)methyl)benzamide] | 1200 | 790 | 470
